# Test results from patent US11596620B2, “Formulations with reduced oxidation” (Genentech, Inc., priority 2013, dated 2023).
# Legend:
# [1] = Cyclic voltammetry (CV) screening assay, oxidation potential; format: physicochemical
# Method: The oxidation/reduction characteristics of the compounds were investigated. Several compounds, including L-Trp and derivatives, were evaluated for the protection of Trp oxidation in proteins using cyclic voltammetry (CV) and rank ordered based on their oxidation potentials (Table 2). Specifically, the candidate antioxidants were dissolved in deionized water and then added to a 0.2 M lithium perchlorate electrolyte solution. […] Solutions were scanned from −0.10 V to +1.50 V at a scan rate of either 100 or 500 mV/sec. The analytical cell was purged for four minutes with nitrogen before scanning of each antioxidant solution. The input was a linear scan of the potential of a working electrode, and the output was measurement of the resulting current. […] Redox reactions were characterized by sharp increases or decreases in current (peaks). The potential at which an oxidation reaction occurred was referred to as the anodic peak potential (or oxidation potential), and the potential at which a reduction occurred was referred to as is the cathodic peak (or reduction) potential.
# mAb1 = mAb1 Fenton stress study (H2O2 + Fe), RP-HPLC; format: physicochemical, human; conditions: 10 ppm H2O2 and 0.2 mM Fe(III), 40° C. for 3 hours; antioxidant 1 mM
# Method: Antioxidants were added at a final concentration of 1 mM. […] After incubation, each reaction was quenched by addition of 100 mM L-Met and then prepared for analysis by reverse-phase HPLC as described above.
# The Fenton reaction, using a mixture of H2O2 and Fe ions, generates oxidation through a metal catalyzed, hydroxyl radical reaction (Prousek et al., Pure and Applied Chemistry 79(12):2325-2338 (2007)). This reaction generated Fab, i.e. tryptophan, oxidation in mAb1. The reaction was also carried out in the presence of select antioxidants that were useful against both AAPH and light induced oxidation as reported above. Data related to the antioxidant properties against Fenton mediated reaction were analyzed using the RP-HPLC assay as described above. The Fenton reaction used 10 ppm of H2O2 and 0.2 mM of Fe(III). The reaction was incubated at 40° C. for 3 hours, quenched with 100 mM L-Met and analyzed using RP-HPLC after papain digest. All samples were the average of three separate vials, and mAb1 control (Ref Mat) was one vial with five independent injections on the HPLC. […] In regards to protection against Fc oxidation, the tested excipients (other than salicylic acid) performed slightly better than L-Trp.
smiles,measurement,setting,value
"N[C@@H](Cc1c[nH]c2ccccc12)C(=O)O [L-Trp, L-tryptophan]",Oxidation Potential,"[1]; anodic peak potential, glassy carbon working electrode, 0.2M lithium perchlorate",0.938 V vs Ag/AgCl
same,Oxidation Potential,"[1]; cyclic voltammetry, 0.2 M lithium perchlorate",0.938 V vs Ag/AgCl
same,Protection of Fab oxidation with respect to the no excipient case,mAb1,about 25%
